Values quoted from earlier work, collected in article PMC4435776 (Journal of cardiovascular translational research, 2014).

System: Mouse ESC
Conditions: compared with the effect of CsA; ref [56]

| Molecule | effect on stem cells of other calcineurin/NFAT inhibitors |
| --- | --- |
| C=CC[C@@H]1/C=C(\C)C[C@H](C)C[C@H](OC)[C@H]2O[C@@](O)(C(=O)C(=O)N3CCCC[C@H]3C(=O)O[C@H](/C(C)=C/[C@@H]3CC[C@@H](O)[C@H](OC)C3)[C@H](C)[C@@H](O)CC1=O)[C@H](C)C[C@@H]2OC [tacrolimus] | absence of a significant effect |
| 11R-VIVIT | absence of a significant effect |
